29 molecules from patent US20230203041A1, “ANTAGONISTS OF THE ADENOSINE A2A RECEPTOR” (AdoRx Therapeutics Limited, priority 2020, published 2023) can be followed below.

For experiment [1], the target named is T1, human Adenosine A2a receptor (Homo sapiens, UniProt P29274).
T1 construct: expressed in transfected cells; host or cells: CHO cell membranes
Briefly: Adenosine receptor TR-FRET binding assay (CA200645 displacement), A2a. The conditions noted are these: 100 nM CA200645, CHO cell membranes, 2 hours at room temperature.

Experiment [2] deals with T2, human Adenosine A3 receptor (Homo sapiens, UniProt P0DMS8).
T2 sequence (P0DMS8 1-318): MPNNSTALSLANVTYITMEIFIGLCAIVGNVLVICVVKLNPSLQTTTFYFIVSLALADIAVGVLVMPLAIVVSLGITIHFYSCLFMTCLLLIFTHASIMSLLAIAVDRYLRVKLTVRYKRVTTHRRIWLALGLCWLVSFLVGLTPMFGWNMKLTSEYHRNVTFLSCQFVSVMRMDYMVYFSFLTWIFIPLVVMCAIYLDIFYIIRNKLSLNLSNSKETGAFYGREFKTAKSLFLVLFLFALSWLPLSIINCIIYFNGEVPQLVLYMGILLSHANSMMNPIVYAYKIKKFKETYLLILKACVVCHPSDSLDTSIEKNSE
Briefly: Adenosine receptor TR-FRET binding assay (CA200645 displacement), A3.

The target of experiment [3] is T3, human Adenosine A1 receptor (Homo sapiens, UniProt P30542).
T3 sequence (P30542 1-326): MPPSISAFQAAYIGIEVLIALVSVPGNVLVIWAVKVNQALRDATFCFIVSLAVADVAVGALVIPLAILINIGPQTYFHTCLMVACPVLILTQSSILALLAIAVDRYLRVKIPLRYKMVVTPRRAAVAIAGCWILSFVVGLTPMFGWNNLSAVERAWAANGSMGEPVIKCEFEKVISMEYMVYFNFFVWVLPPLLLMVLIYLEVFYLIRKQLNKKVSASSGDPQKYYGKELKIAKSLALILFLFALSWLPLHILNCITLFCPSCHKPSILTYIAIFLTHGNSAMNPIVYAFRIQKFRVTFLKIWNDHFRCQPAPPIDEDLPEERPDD
Briefly: Adenosine receptor TR-FRET binding assay (CA200645 displacement), A1.

Structures can show the parent of a compound that is named as a salt. Some results are limits rather than exact numbers.

T1 sequence (P29274 whole entry): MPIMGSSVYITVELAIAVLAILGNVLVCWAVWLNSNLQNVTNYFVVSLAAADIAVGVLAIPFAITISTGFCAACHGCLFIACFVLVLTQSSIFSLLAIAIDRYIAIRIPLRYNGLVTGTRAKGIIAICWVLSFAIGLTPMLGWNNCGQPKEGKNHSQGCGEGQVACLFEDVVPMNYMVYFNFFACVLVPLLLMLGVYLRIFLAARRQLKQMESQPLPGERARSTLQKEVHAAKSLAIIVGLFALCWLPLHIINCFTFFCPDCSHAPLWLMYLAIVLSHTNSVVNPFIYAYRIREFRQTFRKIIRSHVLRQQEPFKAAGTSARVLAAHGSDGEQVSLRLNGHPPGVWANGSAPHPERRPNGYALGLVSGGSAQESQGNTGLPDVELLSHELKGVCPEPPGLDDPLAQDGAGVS

Consider `CC(C)(O)CNC(=O)c1ccn2nc(-c3cccc(C#N)c3)c(-c3ccncn3)c2n1` [Example 13, 2-(3-Cyanophenyl)-N-(2-hydroxy-2-methyl-propyl)-3-pyrimidin-4-yl-pyrazolo[1,5-a]pyrimidine-5-carboxamide], for which the Ki in experiment [1] is 67.1 nM; in experiment [2] it was > 1000 nM.
Taken in the same sequence, the figures for `CC(C)(O)CNC(=O)c1ccn2nc(-c3cccc(C#N)c3)c(C#N)c2n1` [Example 14, 3-Cyano-2-(3-cyanophenyl)-N-(2-hydroxy-2-methyl-propyl)pyrazolo[1,5-a]pyrimidine-5-carboxamide] were 218 nM and > 1000 nM.
Turning to `CC(C)(C)OC(=O)N1CCC[C@@H]1CNc1ccn2nc(-c3ccco3)c(C#N)c2n1` [Example 37.2, tert-butyl (2R)-2-[[[3-cyano-2-(2-furyl)pyrazolo[1,5-a]pyrimidin-5-yl]amino]methyl]pyrrolidine-1-carboxylate], the Ki was 19.2 nM in experiment [1], 103 nM in experiment [3] and 1930 nM in experiment [2].
On to `N#Cc1c(-c2ccco2)nn2ccc(N3CCN(CCF)CC3)nc12` [Example 37.3], for which the values for the Ki in experiment [1], in experiment [3] and in experiment [2] were 22.6 nM, 262 nM and > 1000 nM, respectively.
As for `N#Cc1c(-c2ccco2)nn2ccc(N3CCN(CCc4ccccc4)CC3)nc12` [Example 37.6], the Ki is 45.4 nM in experiment [1], 363 nM in experiment [3] and > 1000 nM in experiment [2].
For `N#Cc1c(-c2ccco2)nn2ccc(N3CCN(Cc4ccccn4)CC3)nc12` [Example 37.7], in that order: 49.3 nM, 154 nM and 7850 nM.
Taken in the same sequence, the figures for `CN1CCN(c2ccn3nc(-c4ccco4)c(C#N)c3n2)CC1` [Example 37.8] were 62.4 nM, 426 nM and > 1000 nM.
For `C[C@H]1CN(c2ccn3nc(-c4ccco4)c(C#N)c3n2)CCN1C(=O)OC(C)(C)C` [Example 37.11], in that order: 171 nM, 2170 nM and 2720 nM.
In the case of `NC(=O)c1c(-c2ccco2)nn2ccc(N3CCN(CCF)CC3)nc12` [Example 39, 5-[4-(2-Fluoroethyl)piperazin-1-yl]-2-(2-furyl)pyrazolo[1,5-a]pyrimidine-3-carboxamide], the Ki was 38.9 nM in experiment [1], 2580 nM in experiment [3] and > 1000 nM in experiment [2].
For `CN(C)C1CN(c2ccn3nc(-c4ccco4)c(C(N)=O)c3n2)C1` [Example 39.1, 5-[3-(Dimethylamino)azetidin-1-yl]-2-(2-furyl)pyrazolo[1,5-a]pyrimidine-3-carboxamide], in that order: 127 nM, 1340 nM and > 1000 nM.
For `Nc1ccn2nc(-c3ccco3)c(Br)c2n1` [Example 50, 3-Bromo-2-(2-furyl)pyrazolo[1,5-a]pyrimidin-5-amine], the Ki came to 151 nM in experiment [1], 459 nM in experiment [3] and 3070 nM in experiment [2].
Taken in the same sequence, the figures for `Cn1ccnc1CN1CCN(c2ccn3nc(-c4ccco4)c(C#N)c3n2)CC1` [Example 51.2, 2-(2-Furyl)-5-[4-[(1-methylimidazol-2-yl)methyl]piperazin-1-yl]pyrazolo [1,5-a]pyrimidine-3-carbonitrile] were 54.9 nM, 104 nM and > 1000 nM.
Taken in the same sequence, the figures for `N#Cc1c(-c2ccco2)nn2ccc(N3CCN(CCO)CC3)nc12` [Example 52, 2-(2-Furyl)-5-[4-(2-hydroxyethyl)piperazin-1-yl]pyrazolo[1,5-a]pyrimidine-3-carbonitrile] were 114 nM, 1150 nM and > 1000 nM.
Taken in the same sequence, the figures for `COC(=O)/C=C/c1c(-c2ccco2)nn2ccc(NCc3ccccc3)nc12` [Example 54, Methyl (E)-3-[5-(benzylamino)-2-(2-furyl)pyrazolo[1,5-a]pyrimidin-3-yl]prop-2-enoate] were 34.7 nM, 18 nM and 68 nM.
Regarding `O=C(O)/C=C/c1c(-c2ccco2)nn2ccc(NCc3ccccc3)nc12` [Example 54.1, (E)-3-[5-(Benzylamino)-2-(2-furyl)pyrazolo[1,5-a]pyrimidin-3-yl]prop-2-enoic acid], the Ki in experiment [1] was determined as 102 nM; in experiment [3], 856 nM; in experiment [2], 6180 nM.
As to `Cc1cccnc1CN1CCN(c2ccn3nc(-c4cccc(C#N)c4)c(C#N)c3n2)CC1` [Example 59, 2-(3-Cyanophenyl)-5-[4-[(3-methyl-2-pyridyl)methyl]piperazin-1-yl]pyrazolo[1,5-a]pyrimidine-3-carbonitrile], the Ki in experiment [1] was determined as 17.5 nM; in experiment [3] it was 1030 nM; in experiment [2] it was 3680 nM.
For `N#Cc1c(-c2cccc(F)c2)nn2ccc(N3CCN(CCF)CC3)nc12` [Example 61, 5-[4-(2-Fluoroethyl)piperazin-1-yl]-2-(3-fluorophenyl)pyrazolo[1,5-a]pyrimidine-3-carbonitrile], in that order: 37.9 nM, 42 nM and 4920 nM.
Consider `N#Cc1c(-c2cnco2)nn2ccc(N3CCN(CCF)CC3)nc12` [Example 62, 5-[4-(2-Fluoroethyl)piperazin-1-yl]-2-oxazol-5-yl-pyrazolo[1,5-a]pyrimidine-3-carbonitrile], for which the Ki in experiment [1] is 365 nM; in experiment [2] it was > 1000 nM.
`N#Cc1c(-c2ccc(F)cc2)nn2ccc(NCc3ccccc3)nc12` [Example 63, 5-(Benzylamino)-2-(4-fluorophenyl)pyrazolo[1,5-a]pyrimidine-3-carbonitrile]: the Ki in experiment [1] stood at 49.1 nM; in experiment [3], 24 nM; in experiment [2] it was 65 nM.
Taken in the same sequence, the figures for `Cc1cccnc1CN1CCN(c2ccn3nc(-c4cnco4)c(C#N)c3n2)CC1` [Example 65, 5-[4-[(3-Methyl-2-pyridyl)methyl]piperazin-1-yl]-2-oxazol-5-yl-pyrazolo[1,5-a]pyrimidine-3-carbonitrile] were 407 nM, 2480 nM and > 1000 nM.
On to `Fc1cccc(-c2cc3nc(NCCN4Cc5ccccc5C4)ccn3n2)c1` [Example 66.4, 2-(3-Fluorophenyl)-N-(2-isoindolin-2-ylethyl)pyrazolo[1,5-a]pyrimidin-5-amine], for which the figures for the Ki in experiment [1], in experiment [3] and in experiment [2] were 706 nM, 803 nM and 2900 nM, respectively.
For the molecule `Fc1cccc(-c2nn3ccc(Cl)nc3c2Br)c1` [Example 68, 3-Bromo-5-chloro-2-(3-fluorophenyl)pyrazolo[1,5-a]pyrimidine], the inhibition constant (Ki) in experiment [1] is 572 nM; in experiment [2], > 1000 nM.
On to `Ic1c(-c2ccco2)nn2ccc(NCc3ccccc3)nc12` [Example 77, N-Benzyl-2-(2-furyl)-3-iodo-pyrazolo[1,5-a]pyrimidin-5-amine], for which the Ki in experiment [1] came to 46.4 nM; in experiment [3], 1430 nM; in experiment [2], 135 nM.
Consider `CN1CCC[C@@H]1CNc1ccn2nc(-c3ccco3)c(C#N)c2n1` [Example 81, 2-(2-Furyl)-5-[[(2R)-1-methylpyrrolidin-2-yl]methylamino]pyrazolo[1,5-a]pyrimidine-3-carbonitrile], for which the Ki in experiment [1] was 202 nM; in experiment [3], 1260 nM; in experiment [2], > 1000 nM.
For `C[C@@H]1CN(c2ccn3nc(-c4ccco4)c(C#N)c3n2)CCN1` [Example 82, 2-(2-Furyl)-5-[(3R)-3-methylpiperazin-1-yl]pyrazolo[1,5-a]pyrimidine-3-carbonitrile hydrochloride], in that order: 665 nM, 4330 nM and > 1000 nM.
For the molecule `CC(C)(C)OC(=O)N1CCC(c2ccn3nc(-c4ccco4)c(C#N)c3n2)CC1` [Example 83, Tert-butyl 4-[3-cyano-2-(2-furyl)pyrazolo[1,5-a]pyrimidin-5-yl]piperidine-1-carboxylate], the Ki in experiment [1] was 694 nM; in experiment [2] it was > 1000 nM.
Regarding `c1ccc(CNc2ncn3nc(-c4ccco4)cc3n2)cc1` [Example 84, N-Benzyl-7-(2-furyl)pyrazolo[1,5-a][1,3,5]triazin-2-amine], the Ki in experiment [1] came to 160 nM; in experiment [3] it was 389 nM; in experiment [2], 231 nM.
Taken in the same sequence, the figures for `O=C(NCc1ccccc1)c1ccn2nc(-c3ccco3)cc2n1` [Example 85, N-Benzyl-2-(2-furyl)pyrazolo[1,5-a]pyrimidine-5-carboxamide] were 493 nM, 366 nM and > 1000 nM.
In the case of `N#Cc1cccc(-c2nn3ccc(NCCN4CCN(c5ccccc5)CC4)nc3c2C#N)c1` [Example 87.1, 2-(3-Cyanophenyl)-5-[2-(4-phenylpiperazin-1-yl)ethylamino]pyrazolo [1,5-a]pyrimidine-3-carbonitrile], the Ki in experiment [1] was 16.3 nM; in experiment [3], 213 nM; in experiment [2], > 1000 nM.

For orientation: Ki means a dissociation constant, usually derived from enzyme kinetics or from competition with a known ligand.
